How the values were obtained:
[1] = In vitro cytotoxicity assay (MTT cell viability) in HepG2 cells; format: cell-based, human; details: human
Procedure, shortened: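 CC50 values reflect loss of HepG2 viability after a 7-day exposure at 37 °C, 5% CO2. After 3-4 h with MTT, solubilized formazan was quantified at 492 nm relative to vehicle wells.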

[2] = system: HBV replication in HepAD38 cells; test: Anti-HBV replication assay in HepAD38 cells (QPCR of extracellular HBV DNA); format: cell-based, HBV (genotype D, serotype ayw); details: Hepatitis B virus, 168 h, 7 days incubation, extracellular HBV DNA by QPCR, read-out: Anti-HBV EC50
Procedure, shortened: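 Tet-off HepAD38, 7-day compound exposure ([…], 1 log10 steps, DMSO vehicle), 37 °C. Extracellular HBV DNA by QPCR, copies/mL via standard curve, % inhibition vs vehicle, EC50 by 4-parameter regression. Entecavir as positive control.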

**Q.** Which CC50 at 7 days [1] does the source give for `CC(C)(CO)CNC(=O)C(=O)c1c(Cl)c(C(=O)Nc2ccc(F)c(F)c2)c2n1CCCC2` [Example 528, 2-chloro-N-(3,4-difluorophenyl)-3-(2-((3-hydroxy-2,2-dimethylpropyl)amino)-2-oxoacetyl)-5,6,7,8-tetrahydroindolizine-1-carboxamide] here?
**A.** The CC50 at 7 days was 0.5 to 4.99 µM.

**Q.** What about the EC50 [2] of the same compound?
**A.** The EC50 was 0.5 to 1 µM.

**Q.** Which CC50 at 7 days [1] does the source give for `Cc1cc(NC(=O)c2c(C)c(C(=O)C(=O)N[C@@H](C(N)=O)C(C)C)n(C)c2C)ccc1F` [Example 105, (R)-5-(2-((1-amino-3-methyl-1-oxobutan-2-yl)amino)-2-oxoacetyl)-N-(4-fluoro-3-methylphenyl)-1,2,4-trimethyl-1H-pyrrole-3-carboxamide] here?
**A.** The CC50 at 7 days was 5 to 30 µM.

**Q.** And the EC50 [2]?
**A.** The EC50 was less than 0.05 µM.

**Q.** Which CC50 at 7 days [1] does the source give for `Cc1noc([C@@H](C)NC(=O)C(=O)c2c(Cl)c(C(=O)Nc3cnc(F)c(C)c3)c3n2CCCC3)n1` [Example 522, (R)-2-chloro-N-(6-fluoro-5-methylpyridin-3-yl)-3-(2-((1-(3-methyl-1,2,4-oxadiazol-5-yl)ethyl)amino)-2-oxoacetyl)-5,6,7,8-tetrahydroindolizine-1-carboxamide] here?
**A.** The CC50 at 7 days was greater than 30 µM.

**Q.** What about the EC50 [2] of the same compound?
**A.** The EC50 was greater than 1 µM.

**Q.** What does the source list for `O=C(N[C@H]1COC[C@@H]1O)C(=O)c1c(Cl)c(C(=O)Nc2ccc(F)c(Cl)c2)c2n1CCC2` [Example 563, 6-chloro-N-(3-chloro-4-fluorophenyl)-5-(2-(((3S,4R)-4-hydroxytetrahydrofuran-3-yl)amino)-2-oxoacetyl)-2,3-dihydro-1H-pyrrolizine-7-carboxamide]?
**A.** CC50 at 7 days [1]: 5 to 30 µM; EC50 [2]: < 0.05 µM

**Q.** What does the source list for `Cc1cc(NC(=O)c2c(Cl)c(C(=O)C(=O)NC(C)(C)CO)n3c2CCC3)ccc1F` [Example 540, 6-chloro-N-(4-fluoro-3-methylphenyl)-5-(2-((1-hydroxy-2-methylpropan-2-yl)amino)-2-oxoacetyl)-2,3-dihydro-1H-pyrrolizine-7-carboxamide]?
**A.** CC50 at 7 days [1]: > 30 µM; EC50 [2]: < 0.05 µM

**Q.** For `Cc1cc(NC(=O)c2c(C)c(C(=O)C(=O)NC3(CO)CC3)n3c2CCCC3)ccc1F` [Example 445, N-(4-fluoro-3-methylphenyl)-3-(2-((1-(hydroxymethyl)cyclopropyl)amino)-2-oxoacetyl)-2-methyl-5,6,7,8-tetrahydroindolizine-1-carboxamide], which CC50 at 7 days [1] is on record?
**A.** The CC50 at 7 days was 5 to 30 µM.

**Q.** And the EC50 [2]?
**A.** Its EC50 is less than 0.05 µM.

**Q.** Which CC50 at 7 days [1] does the source give for `COC(=O)[C@H](NC(=O)C(=O)c1c(C)c(C(=O)Nc2ccc(F)c(C)c2)c(C)n1C)[C@H](C)O` [Example 28, methyl (2-(4-((4-fluoro-3-methylphenyl)carbamoyl)-1,3,5-trimethyl-1H-pyrrol-2-yl)-2-oxoacetyl)-D-threoninate] here?
**A.** The CC50 at 7 days was greater than 30 µM.

**Q.** What about the EC50 [2] of the same compound?
**A.** Its EC50 is less than 0.05 µM.

**Q.** Which results are given for `Cc1cc(NC(=O)c2c(C)c(C(=O)C(=O)N[C@H]3CC[C@@H](O)CC3)n(C)c2C)cc(Cl)n1` [Example 628, N-(2-chloro-6-methylpyridin-4-yl)-5-(2-(((1s,4s)-4-hydroxycyclohexyl)amino)-2-oxoacetyl)-1,2,4-trimethyl-1H-pyrrole-3-carboxamide]?
**A.** CC50 at 7 days [1]: > 30 µM; EC50 [2]: < 0.05 µM

**Q.** Which results are given for `Cc1cc(NC(=O)c2c(C)c(C(=O)C(=O)N[C@@H]3CCC[C@@H](O)C3)n(C)c2C)ccc1F` [Example 287, N-(4-fluoro-3-methylphenyl)-5-(2-(((1R,3R)-3-hydroxycyclohexyl)amino)-2-oxoacetyl)-1,2,4-trimethyl-1H-pyrrole-3-carboxamide]?
**A.** CC50 at 7 days [1]: > 30 µM; EC50 [2]: < 0.05 µM

**Q.** With `Cc1cc(NC(=O)c2c(C)c(C(=O)C(=O)N[C@H]3C[C@H](O)C3)n(C)c2C)ccc1F` [Example 129, N-(4-fluoro-3-methylphenyl)-5-(22-(((1r,3r)-3-hydroxycyclobutyl)amino)-2-oxoacetyl)-1,2,4-trimethyl-1H-pyrrole-3-carboxamide] as the compound, how does the CC50 at 7 days [1] read?
**A.** The CC50 at 7 days was greater than 30 µM.

**Q.** And the EC50 [2]?
**A.** Its EC50 is less than 0.05 µM.

**Q.** For `Cc1cnc(C(NC(=O)C(=O)c2c(C)c(C(=O)Nc3ccc(F)c(C)c3)c(C)n2C)C2CC2)s1` (centres unmarked) [Example 83, 5-(2-((cyclopropyl(5-methylthiazol-2-yl)methyl)amino)-2-oxoacetyl)-N-(4-fluoro-3-methylphenyl)-1,2,4-trimethyl-1H-pyrrole-3-carboxamide], which CC50 at 7 days [1] is on record?
**A.** Its CC50 at 7 days is 5 to 30 µM.

**Q.** What about the EC50 [2] of the same compound?
**A.** Its EC50 is less than 0.05 µM.

**Q.** With `CCn1c(C)c(C(=O)Nc2ccc(F)c(C)c2)c(C)c1C(=O)C(=O)NC(C)(C)C` [Example 96, 5-(2-(tert-butylamino)-2-oxoacetyl)-1-ethyl-N-(4-fluoro-3-methylphenyl)-2,4-dimethyl-1H-pyrrole-3-carboxamide] as the compound, how does the CC50 at 7 days [1] read?
**A.** Its CC50 at 7 days is greater than 30 µM.

**Q.** And the EC50 [2]?
**A.** The EC50 was less than 0.05 µM.

**Q.** Which results are given for `Cc1c(C(=O)Nc2ccc(F)c(Cl)c2)c2n(c1C(=O)C(=O)NCC(C)(C)CO)CCCC2` [Example 466, N-(3-chloro-4-fluorophenyl)-3-(2-((3-hydroxy-2,2-dimethylpropyl)amino)-2-oxoacetyl)-2-methyl-5,6,7,8-tetrahydroindolizine-1-carboxamide]?
**A.** CC50 at 7 days [1]: > 30 µM; EC50 [2]: 0.05 to 0.499 µM

**Q.** Which CC50 at 7 days [1] does the source give for `Cc1cc(NC(=O)c2c(C)c(C(=O)C(=O)N[C@@H](C(=O)NCCO)C(C)(C)C)n(C)c2C)ccc1F` [Example 86, (R)-N-(4-fluoro-3-methylphenyl)-5-(2-((1-((2-hydroxyethyl)amino)-3,3-dimethyl-1-oxobutan-2-yl)amino)-2-oxoacteyl)-1,2,4-trimethyl-1H-pyrrole-3-carboxamide] here?
**A.** The CC50 at 7 days was 5 to 30 µM.

**Q.** What about the EC50 [2] of the same compound?
**A.** Its EC50 is less than 0.05 µM.

**Q.** Which CC50 at 7 days [1] does the source give for `Cc1cc(NC(=O)c2c(C)c(C(=O)C(=O)NC3(C)CCN(C(=O)c4cn(C)nc4C(F)F)CC3)n(C)c2C)ccc1F` [Example 708, 5-(2-((1-(3-(difluoromethyl)-1-methyl-1H-pyrazole-4-carbonyl)-4-methylpiperidin-4-yl)amino)-2-oxoacetyl)-N-(4-fluoro-3-methylphenyl)-1,2,4-trimethyl-1H-pyrrole-3-carboxamide] here?
**A.** The CC50 at 7 days was greater than 30 µM.

**Q.** And the EC50 [2]?
**A.** The EC50 was less than 0.05 µM.

**Q.** With `Cc1noc(C2(NC(=O)C(=O)c3c(C)c(C(=O)Nc4ccc(F)c(C)c4)c(C)n3C)CC2)n1` [Example 155, N-(4-fluoro-3-methylphenyl)-1,2,4-trimethyl-5-(2-((1-(3-methyl-1,2,4-oxxadiazol-5-yl)cyclopropyl)amino)-2-oxoacetyl)-1H-pyrrole-3-carboxamide] as the compound, how does the CC50 at 7 days [1] read?
**A.** Its CC50 at 7 days is greater than 30 µM.

**Q.** What about the EC50 [2] of the same compound?
**A.** The EC50 was less than 0.05 µM.

**Q.** Which results are given for `Cc1cc(NC(=O)c2c(C)c(C(=O)C(=O)NC3(CO)CCOC3)n(C)c2C)ccc1F` (centres unmarked) [Example 13, N-(4-fluoro-3-methylphenyl)-5-(2-((3-(hydroxymethyl)tetrahydrofuran-3-yl)amino)-2-oxoacetyl)-1,2,4-trimethyl-1H-pyrrole-3-carboxamide]?
**A.** CC50 at 7 days [1]: > 30 µM; EC50 [2]: < 0.05 µM

**Q.** With `Cc1noc([C@@H](NC(=O)C(=O)c2c(Cl)c(C(=O)Nc3ccc(F)c(C)c3)c3n2CCC3)C(C)C)n1` [Example 543, (S)-6-chloro-N-(4-fluoro-3-methylphenyl)-5-(2-((2-methyl-1-(3-methyl-1,2,4-oxadiazol-5-yl)propyl)amino)-2-oxoacetyl)-2,3-dihydro-1H-pyrrolizine-7-carboxamide] as the compound, how does the CC50 at 7 days [1] read?
**A.** Its CC50 at 7 days is greater than 30 µM.

**Q.** And the EC50 [2]?
**A.** The EC50 was less than 0.05 µM.

**Q.** With `CC(=O)N[C@H]1C[C@H](NC(=O)C(=O)c2c(C)c(C(=O)Nc3ccc(F)c(C)c3)c(C)n2C)C1` [Example 670, 5-(2-(((1r,3r)-3-acetamidocyclobutyl)amino)-2-oxoacetyl)-N-(4-fluoro-3-methylphenyl)-1,2,4-trimethyl-1H-pyrrole-3-carboxamide] as the compound, how does the CC50 at 7 days [1] read?
**A.** Its CC50 at 7 days is greater than 30 µM.

**Q.** And the EC50 [2]?
**A.** The EC50 was less than 0.05 µM.

**Q.** What does the source list for `Cc1c(C(=O)Nc2ccc(F)nc2)c(C)n(C)c1C(=O)C(=O)NC1(C)CCOCC1` [Example 325, N-(6-fluoropyridin-3-yl)-1,2,4-trimethyl-5-(2-((4-methyltetrahydro-2H-pyran-4-yl)amino)-2-oxoacetyl)-1H-pyrrole-3-carboxamide]?
**A.** CC50 at 7 days [1]: > 30 µM; EC50 [2]: 0.05 to 0.499 µM

**Q.** For `Cc1cc(NC(=O)c2c(C)c(C(=O)C(=O)NC3(C(F)(F)F)CCOCC3)n(C)c2C)ccc1F` [Example 109, N-(4-fluoro-3-methylphenyl)-1,2,4-trimethyl-5-(2-oxo-2-((4-(trifluoromethyl)tetrahydro-2H-pyran-4-yl)amino)acetyl)-1H-pyrrole-3-carboxamide], which CC50 at 7 days [1] is on record?
**A.** The CC50 at 7 days was greater than 30 µM.

**Q.** And the EC50 [2]?
**A.** The EC50 was less than 0.05 µM.

**Q.** What does the source list for `Cc1cc(NC(=O)c2c(C)c(C(=O)C(=O)N[C@@H]3CC[C@H](O)[C@H]3O)n(C)c2C)ccc1F` [Example 151, 5-(2-(((1R,2S,3S)-2,3-dihydroxycyclopentyl)amino)-2-oxoacetyl)-N-(4-fluoro-3-methylphenyl)-1,2,4-trimethyl-1H-pyrrole-3-carboxamide]?
**A.** CC50 at 7 days [1]: > 30 µM; EC50 [2]: < 0.05 µM

**Q.** Which results are given for `Cc1cc(NC(=O)c2c(C)c(C(=O)C(=O)N[C@H]3CNC(=O)C3(C)C)n(C)c2C)ccc1F` [Example 621, (R)-5-(2-((4,4-dimethyl-5-oxopyrrolidin-3-yl)amino)-2-oxoacetyl)-N-(4-fluoro-3-methylphenyl)-1,2,4-trimethyl-1H-pyrrole-3-carboxamide]?
**A.** CC50 at 7 days [1]: > 30 µM; EC50 [2]: < 0.05 µM

**Q.** Which results are given for `Cc1cc(NC(=O)c2c(C)c(C(=O)C(=O)NC34CC5CC(CC3C5)C4)n(C)c2C)ccc1F` [Example 18, N-(4-fluoro-3-methylphenyl)-5-(2-(((2R,3as,5S,6as)-hexahydro-2,5-methanopentalen-3a(1H)-yl)amino)-2-oxoacetyl)-1,2,4-trimethyl-1H-pyrrole-3-carboxamide]?
**A.** CC50 at 7 days [1]: > 30 µM; EC50 [2]: < 0.05 µM

**Q.** With `Cc1cc(NC(=O)c2c(C)c(C(=O)C(=O)NC(C)(C)C(F)(F)F)n(CCF)c2C)cnc1F` [Example 224, N-(6-ffluoro-5-methylpyridin-3-yl)-1-(2-fluoroethyl)-2,4-dimethyl-5-(2-oxo-2-((1,1,1-trifluoro-2-methylpropan-2-yl)amino)acetyl)-1H-pyrrole-3-carboxamide] as the compound, how does the CC50 at 7 days [1] read?
**A.** The CC50 at 7 days was greater than 30 µM.

**Q.** What about the EC50 [2] of the same compound?
**A.** The EC50 was 0.05 to 0.499 µM.

From patent publication US20190375708A1 (VenatoRx Pharmaceuticals, Inc., priority 2018, published 2019)
